Laboratory results as given in the NIST ThermoML archive (doi:10.1016/j.fluid.2016.05.004).
± gives the expanded uncertainty stated by the source.

Conditions: Liquid, Closed cell (Static) method

SMILES | vapor or sublimation pressure (233.19 K) [kPa] | vapor or sublimation pressure (243.22 K) [kPa] | vapor or sublimation pressure (253.21 K) [kPa] | vapor or sublimation pressure (263.21 K) [kPa] | vapor or sublimation pressure (273.19 K) [kPa] | vapor or sublimation pressure (233.17 K) [kPa] | vapor or sublimation pressure (243.23 K) [kPa] | vapor or sublimation pressure (253.14 K) [kPa] | vapor or sublimation pressure (263.2 K) [kPa] | vapor or sublimation pressure (243.24 K) [kPa] | vapor or sublimation pressure (253.22 K) [kPa] | vapor or sublimation pressure (263.24 K) [kPa] | vapor or sublimation pressure (273.18 K) [kPa]
O=C=O [carbon dioxide] | 1009 ± 12 | 1432 ± 12 | 1970 ± 13 | 2645 ± 15 | 3473 ± 16 |  |  |  |  |  |  |  | 
FC(F)=C(F)C(F)(F)F [hexafluoropropene] |  |  |  |  | 334 ± 10 | 64 ± 10 | 102 ± 10 | 157 ± 10 | 233 ± 10 |  |  |  | 
FC(F)(F)C1(F)OC1(F)F (stereo not given) [2,2,3-trifluoro-3-(trifluoromethyl)oxirane] |  |  |  |  |  | 58 ± 10 |  |  |  | 95 ± 10 | 145 ± 10 | 216 ± 10 | 310 ± 10
